Experimental data taken from US8722910B2, “Diyne compositions” (Evolva AG, priority 2009, dated 2014).
In brackets after ≈: the same amount, converted by molar mass. Like-named read-outs stand apart in the source and are kept apart here.

Key:
[1] = system: C. albicans; test: Susceptibility of clinical isolates (MIC, broth dilution); type: cell-based; conditions: Candida albicans; C. albicans (n = 20); M27-A3, 24 hrs; read at 50% inhibition (potassium salt, Voriconazole), 100% (Amphotericin), MEC (Caspofungin); read-out: MIC90
Experimental: (§1) The efficacy of compound IV″ was investigated on 563 clinical isolates of 33 human fungal pathogens. […] For species with n≧10, the MIC90 (MIC, minimal inhibitory concentration) is given as ng/ml. For species with n≦10, the MIC range is given as ng/ml. 24 h and 48 h reads are indicated (Table 1).
(§2) The in vitro efficacy of antifungal compounds is determined in susceptibility assays, which are indicative for the spectrum and potency of a compound. Susceptibilities are reported as minimal inhibitory concentrations (MIC, as ng/ml or μg/ml) required to inhibit growth to a defined degree compared to the drug free control. The MIC90 defines the MIC required to inhibit growth for ≧90% of the strains of a population tested.
(§3) The MIC90 was calculated for the indicated species.

[2] = system: C. dubliniensis; test: as above; type: cell-based; conditions: Candida dubliniensis; C. dubliniensis (n = 25); M27-A3, 24 hrs; read at 50% inhibition (potassium salt, Voriconazole), 100% (Amphotericin), MEC (Caspofungin); read-out: MIC90
Experimental: as §1, §2, §3

[3] = system: C. glabrata; test: as above; type: cell-based; conditions: Nakaseomyces glabratus; C. glabrata (n = 25); M27-A3, 24 hrs; read at 50% inhibition (potassium salt, Voriconazole), 100% (Amphotericin), MEC (Caspofungin); read-out: MIC90
Experimental: as §1, §2, §3

[4] = system: C. krusei; test: as above; type: cell-based; conditions: Pichia kudriavzevii; C. krusei (n = 27); M27-A3, 24 hrs; read at 50% inhibition (potassium salt, Voriconazole), 100% (Amphotericin), MEC (Caspofungin); read-out: MIC90
Experimental: as §1, §2, §3

[5] = system: C. lusitaniae; test: as above; type: cell-based; conditions: Clavispora lusitaniae; C. lusitaniae (n = 24); M27-A3, 24 hrs; read at 50% inhibition (potassium salt, Voriconazole), 100% (Amphotericin), MEC (Caspofungin); read-out: MIC90
Experimental: as §1, §2, §3

[6] = system: C. parapsilosis; test: as above; type: cell-based; conditions: Lodderomyces parapsilosis; C. parapsilosis (n = 37); M27-A3, 24 hrs; read at 50% inhibition (potassium salt, Voriconazole), 100% (Amphotericin), MEC (Caspofungin); read-out: MIC90
Experimental: as §1, §2, §3

[7] = system: C. tropicalis; test: as above; type: cell-based; conditions: Candida tropicalis; C. tropicalis (n = 35); M27-A3, 24 hrs; read at 50% inhibition (potassium salt, Voriconazole), 100% (Amphotericin), MEC (Caspofungin); read-out: MIC90
Experimental: as §1, §2, §3

[8] = system: C. albicans, Fluconazole, Voriconazole, Itraconazole and/or Caspofungin resistant isolates; test: Susceptibility of resistant clinical isolates (MIC, broth dilution); type: cell-based; conditions: Candida albicans; C. albicans resistant (n = 20): isolates resistant to Fluconazole, Itraconazole and Caspofungin; read-out: MIC90
[9] = system: C. glabrata, Fluconazole, Voriconazole, Itraconazole and/or Caspofungin resistant isolates; test: as above; type: cell-based; conditions: Nakaseomyces glabratus; C. glabrata resistant (n = 21): isolates resistant to Fluconazole, Itraconazole, Voriconazole and Caspofungin; read-out: MIC90
Experimental: as §1, §3

[10] = system: A. flavus; test: Susceptibility of clinical Aspergillus isolates (MIC); type: cell-based; conditions: Aspergillus flavus; A. flavus (n = 2); CLSI M38-A2; 50% growth inhibition; 24 h; read-out: MIC50
Experimental: as §1
(§4) Susceptibilities were determined according to the CLSI reference method M38-A2.

[11] = system: A. fumigatus; test: as above; type: cell-based; conditions: Aspergillus fumigatus; A. fumigatus (n = 20); CLSI M38-A2; 50% growth inhibition; 24 h; read-out: MIC50
Experimental: as §1, §4

[12] = system: A. nidulans; test: as above; type: cell-based; conditions: A. nidulans (n = 3), CLSI M38-A2, 50% growth inhibition, 24 h, read-out: MIC50
Experimental: as §1, §4

[13] = system: A. niger; test: as above; type: cell-based; conditions: A. niger (n = 6), CLSI M38-A2, 50% growth inhibition, 24 h, read-out: MIC50
Experimental: as §1, §4

[14] = system: A. terreus; test: as above; type: cell-based; conditions: Aspergillus terreus; A. terreus (n = 5); CLSI M38-A2; 50% growth inhibition; 24 h; read-out: MIC50
Experimental: as §1, §4

[15] = system: A. versicolor; test: as above; type: cell-based; conditions: Aspergillus versicolor; A. versicolor (n = 3); CLSI M38-A2; 50% growth inhibition; 24 h; read-out: MIC50
Experimental: as §1, §4

[16] = system: Coccidioides spp.; test: microbe, parasite or virus in culture; type: cell-based; conditions: Coccidioides, 48 h
[17] = system: B. dermatitidis; test: Susceptibility of clinical dimorphic fungi (MIC); type: cell-based; conditions: Blastomyces dermatitidis; B. dermatitidis (n = 30); CLSI M38-A2; 50% growth reduction; MIC read at 96 h
[18] = system: H. capsulatum; test: microbe, parasite or virus in culture; type: cell-based; conditions: Histoplasma capsulatum, 120 h
[19] = system: Candida albicans; test: In vitro fungicidal activity vs. Candida albicans; conditions: Candida albicans
[20] = system: C. albicans; test: Fatty acid competition (antagonism) in 96-well plates; conditions: 48 h

C[C@@H]1[C@H](O)[C@@H](C)/C=C/C=C/C=C/C=C/C=C/C=C/C=C/[C@H](O[C@@H]2O[C@H](C)[C@@H](O)[C@H](N)[C@@H]2O)C[C@@H]2O[C@](O)(C[C@@H](O)C[C@@H](O)[C@H](O)CC[C@@H](O)C[C@@H](O)CC(=O)O[C@H]1C)C[C@H](O)[C@H]2C(=O)O [Amphotericin B]
MIC90 [1]: 0.5 µg/mL
MIC90 [2]: 1 µg/mL
MIC90 [3]: 2 µg/mL
MIC90 [4]: 4 µg/mL
MIC90 [5]: 1 µg/mL
MIC90 [6]: 0.5 µg/mL
MIC90 [7]: 1 µg/mL
MIC90 [8]: 0.5 µg/mL (≈ 0.541 µM)
MIC90 [9]: 2 µg/mL (≈ 2.16 µM)
MIC50 [10]: 2 µg/mL (≈ 2.16 µM)
MIC50 [11]: 0.5 µg/mL (≈ 0.541 µM)
MIC50 [12]: 2 µg/mL (≈ 2.16 µM)
MIC50 [13]: 1 µg/mL (≈ 1.08 µM)
MIC50 [14]: 2 µg/mL (≈ 2.16 µM)
MIC50 [15]: 2 µg/mL (≈ 2.16 µM)
MIC90 [16]: 0.5 µg/mL (≈ 0.541 µM)
MIC90 [17]: 0.25 µg/mL (≈ 0.271 µM)
MIC90 [18]: 0.125 µg/mL (≈ 0.135 µM)
Fungicidal Concentration [19]: 800 ng/mL
MIC90 ([19]; 24 h, read-out: MIC90 24 h): 0.2 µg/mL (≈ 0.216 µM)
MIC90 ([19]; 48 h, read-out: MIC90 48 h): 0.8 µg/mL (≈ 0.866 µM)
effect of oleic acid / stearic acid on susceptibility [20]: oleic acid did not decrease the susceptibility
